Earlier results on two molecules are cited in US10253031B2, “Stable pemetrexed arginine salt and compositions comprising it” (SYNTHON B.V., priority 2013, dated 2019).

Structures are written as SMILES. Counter-ions that a name gives are not always drawn.

The conditions of the data set: background statement.

In the case of `Nc1nc2[nH]cc(CCc3ccc(C(=O)N[C@@H](CCC(=O)O)C(=O)O)cc3)c2c(=O)[nH]1` [Disodium salt of pemetrexed], the Solubility in water result is on record as “soluble in water”. Take `Nc1nc2[nH]cc(CCc3ccc(C(=O)N[C@@H](CCC(=O)O)C(=O)O)cc3)c2c(=O)[nH]1` [pemetrexed diacid, N-[4-[2-(2-amino-4,7-dihydro-4-oxo-1H-pyrrolo [2,3-d]pyrimidin-5-yl)ethyl]benzoyl]-L-glutamic acid]: the Solubility in water entry is “sparingly soluble”.
